US20200024246A1, “POGOSTONE DERIVATIVES AND METHODS OF USING THE SAME” (Hamyard Associates LLC, priority 2018, published 2020)
Values after ≈ are worked out from the molar mass of the structure shown.

Legend:
adult female mosquitoes = test: whole plant or invertebrate; settings: for ranking in knockdown and mortality screenings: words; for pest or weed control at 0.5 % / pest or weed control at 1.5 % / mortality at 0.5 % / mortality at 1.5 %: Culicidae; for pest or weed control at 0.5 % / pest or weed control at 1.5 %: 1 h; for pest or weed control at 0.5 %: read-out: Knockdown at 0.5%; for pest or weed control at 1.5 %: read-out: Knockdown at 1.5%; for mortality at 0.5 %: read-out: Mortality at 0.5%; for mortality at 1.5 %: read-out: Mortality at 1.5%
Protocol: The first group of DHAA-based derivatives that were tested included Formula A2, Formula B3, Formula C3, and Formula D3. A solution of 0.5% or 1.5% of each of these compounds was applied to the mosquitoes, as described above. […] Acetone was used as a control.

house flies = test: Knockdown and mortality of DHAA-based derivatives on house flies; assay type: in vivo, house fly
Description: Accordingly, further derivatives with structures similar to Formula C3 were synthesized and tested for knockdown potential and mortality in house flies and mosquitoes using an experimental design similar to the one described above. These compounds include Formula C5, Formula C6, Formula C7, Formula C8, Formula C9, and Formula C10.

adult flies = test: Contact toxicity on treated filter paper; assay type: in vivo; settings: filter paper treated with 1 mL in acetone; 24 hours
Protocol: Filter papers were treated with 1 mL of the disclosed compounds in acetone at varying concentrations, and the filter papers were placed in a dish. Ten adult flies were added to each dish and a sugar pad was added to each dish to ensure that any mortality could be attributed to the compound instead of starvation. Mortality was assessed at 24 hours.

[1] = tested on: 3-4 instar Aedes aegypti larvae; test: Mosquito larvicide bioassay; assay type: in vivo; settings: Aedes aegypti, 24 h
Protocol: Mosquito larvicide bioassays were performed by introducing various concentrations of test compounds (pyrone derivatives and rotenone) into acetone at various concentrations. 200 uL of these solutions were added to individual cups containing 10, 3-4 instar Aedes aegypti larvae and 25 mL of DI water. 2 mg of Tetramin™ was provided to each cup as a food source. […] Ataxia was used as the indicator of larval mortality. At least 5 concentrations were used which caused between 10 and 90% mortality. LC50 values were calculated using a PROC PROBIT model in SAS 9.4.

adult, female mosquitoes = test: Topical application on adult female mosquitoes (24-h mortality, 1-h knockdown); assay type: in vivo, mosquito; settings: Mosquito Knockdown Properties (1 hour); topical application; read-out: KD50 (ug/g mosquito)

SMILES | ranking in knockdown and mortality screenings (adult female mosquitoes) | pest or weed control at 0.5 % (adult female mosquitoes; topical) [%] | pest or weed control at 1.5 % (adult female mosquitoes; topical) [%] | mortality at 0.5 % (adult female mosquitoes; topical, 24 h) [%] | mortality at 1.5 % (adult female mosquitoes; topical, 24 h) [%] | other results
Cc1cc(O)c(C(=O)CSCC(=O)O)c(=O)o1 [Formula C6] |  |  |  |  |  | Mosquito Knockdown at 0.5% concentration (adult female mosquitoes): 27%; Mosquito Mortality at 0.5% concentration (adult female mosquitoes): 43%; Mosquito Knockdown at 1.5% concentration (adult female mosquitoes): 18%; Mosquito Mortality at 1.5% concentration (adult female mosquitoes): 15%; House Fly Knockdown at 0.5% concentration (house flies): 2.5%; House Fly Mortality at 0.5% concentration (house flies): 10%; House Fly Knockdown at 1.5% concentration (house flies): 7%; House Fly Mortality at 1.5% concentration (house flies): 6%
Cc1cc(O)c(C(=O)COCc2ccccc2)c(=O)o1 [Formula C7] |  |  |  |  |  | Mosquito Knockdown at 0.5% concentration (adult female mosquitoes): 10%; Mosquito Mortality at 0.5% concentration (adult female mosquitoes): 23%; Mosquito Knockdown at 1.5% concentration (adult female mosquitoes): 20%; Mosquito Mortality at 1.5% concentration (adult female mosquitoes): 15%; House Fly Knockdown at 0.5% concentration (house flies): 2.5%; House Fly Mortality at 0.5% concentration (house flies): 13%; House Fly Knockdown at 1.5% concentration (house flies): 1%; House Fly Mortality at 1.5% concentration (house flies): 9%
CCOCC(=O)c1c(O)cc(C)oc1=O [Formula C8] | performed the best in the initial knockdown and mortality screenings |  |  |  |  | Mosquito Knockdown at 0.5% concentration (adult female mosquitoes): 43%; Mosquito Mortality at 0.5% concentration (adult female mosquitoes): 73%; Mosquito Knockdown at 1.5% concentration (adult female mosquitoes): 80%; Mosquito Mortality at 1.5% concentration (adult female mosquitoes): 80%; 1-hour Knockdown EC50 (μg/g mosquito) (adult female mosquitoes; mosquito, topical, 1 hour): 661 μg/g mosquito; LD50 (adult female mosquitoes; topical, 24 h, read-out: 24-hour Mortality LD50 (μg/g mosquito)): 256 mg/kg; House Fly Knockdown at 0.5% concentration (house flies): 0%; House Fly Mortality at 0.5% concentration (house flies): 3%; House Fly Knockdown at 1.5% concentration (house flies): 2%; House Fly Mortality at 1.5% concentration (house flies): 13%
COCC(=O)c1c(O)cc(C)oc1=O [Formula C9] |  |  |  |  |  | Mosquito Knockdown at 0.5% concentration (adult female mosquitoes): 37%; Mosquito Mortality at 0.5% concentration (adult female mosquitoes): 73%; Mosquito Knockdown at 1.5% concentration (adult female mosquitoes): 53%; Mosquito Mortality at 1.5% concentration (adult female mosquitoes): 70%; House Fly Knockdown at 0.5% concentration (house flies): 0%; House Fly Mortality at 0.5% concentration (house flies): 5%; House Fly Knockdown at 1.5% concentration (house flies): 1%; House Fly Mortality at 1.5% concentration (house flies): 6%
Cc1cc(O)c(C(=O)COCC(=O)O)c(=O)o1 [Formula C14] |  | 7 | 0 | 13 | 40 | 
Cc1cc(O)c(C(=O)CC(O)C2CCCCC2)c(=O)o1 (stereo not shown) [Formula C15] | appear to be the most potent insecticidal compounds | 23 | 50 | 33 | 63 | 
Cc1cc2c(c(=O)o1)C(=O)CC(C(C)C)O2 (stereo not shown) [Formula C16] |  | 0 | 7 | 3 | 3 | 
CC(=O)CCC(=O)c1c(O)cc(C)oc1=O [Formula C17] |  | 27 | 13 | 47 | 7 | 
Cc1cc(O)c(C(=O)CCC=O)c(=O)o1 [Formula C18] |  | 3 | 0 | 3 | 7 | 
C=C(C)C(O)CC(=O)c1c(O)cc(C)oc1=O (stereo not shown) [Formula C19] | appear to be the most potent insecticidal compounds | 83 | 83 | 83 | 77 | percent mortality, 0.10% Concentration (adult flies): 0%; percent mortality, 0.25% Concentration (adult flies): 0%; percent mortality, 0.50% Concentration (adult flies): 0%
Cc1cc(O)c(C(=O)CCC(O)CBr)c(=O)o1 (stereo not shown) [Formula C20] |  | 17 | 10 | 10 | 20 | 
Cc1cc(O)c(C(=O)/C=C/C(C)(C)C)c(=O)o1 [Formula C21] |  | 3 | 7 | 0 | 0 | 
Cc1cc2occ(CC(C)C)c(=O)c2c(=O)o1 [Formula C22] |  | 10 | 10 | 7 | 13 | 
CC(C)CCC(=O)C1C(=O)N(C)C(=O)N(C)C1=O [Formula C24] | appear to be the most potent insecticidal compounds | 93 | 100 | 97 | 97 | 
CC(C)C(O)CC(=O)c1c(O)c2ccccc2oc1=O (stereo not shown) [Formula C25] | appear to be the most potent insecticidal compounds | 93 | 100 | 100 | 100 | 
C=CCCC(=O)c1c(O)cc(C)oc1=O [Formula C26] | appear to be the most potent insecticidal compounds | 100 | 97 | 100 | 100 | 
CC(=O)c1c(O)c2ccccc2oc1=O [Formula C27] |  | 100 | 73 | 97 | 83 | 
C=C(C)[C@H]1Cc2c(ccc3c2O[C@@H]2COc4cc(OC)c(OC)cc4[C@@H]2C3=O)O1 [Rotenone, reference compound] |  |  |  |  |  | LC50 [1]: 0.35 µg/mL (≈ 0.887 µM)
Cc1ccc(C(C)C)c(O)c1 [Thymol, reference compound] |  |  |  |  |  | ED50 (adult, female mosquitoes): 1700 mg/kg
